The text below walks through data of ChEMBL document CHEMBL1131366, “Development of new chromanol antagonists of leukotriene D4” (Bioorg Med Chem Lett, 1998).

Test [1] relates to Cavia porcellus. The test is described as follows: Compound was tested for antigen induced airway obstruction in guinea pig at 2.0 hr upon peroral administration. In kind it is functional. The settings on record: po.
The subject of a further test is U-937. The test is described as follows: Compound was evaluated for influx of calcium mobilization in human U937 cells. In kind it is functional, cell-based. (A change in cytosolic calcium serves as a functional read-out for many receptors and channels.)
The test system of test [2] is Cavia porcellus. The test is described as follows: Compound was tested for antigen induced airway obstruction in guinea pig at 1.0 hr upon peroral administration. In kind it is functional. As to conditions: po.

In general, ED50 refers to the midpoint of the dose-response relation. Lower therefore signals greater potency. Usually IC50 stands for the concentration at which inhibition is half-maximal.

As to `COc1cc(C(=O)NS(=O)(=O)c2ccccc2C)ccc1Cc1cn(C)c2ccc(NC(=O)OC3CCCC3)cc12` [ZAFIRLUKAST], the 50% effect level in the test on Cavia porcellus [1] (ED50) was put at a dose of 0.9 mg/kg. `C[C@H]1Oc2ccc(OCc3nc4cc(F)ccc4s3)cc2[C@H](O)[C@@H]1Cc1cccc(NS(=O)(=O)C(F)(F)F)c1` (stereo in doubt; (+)-26): in the test with U-937, the IC50 stood at 8 nM. The ED50 in the test with Cavia porcellus [2] was 0.5 mg/kg.

As for `O=C(Nc1cccc2c(=O)cc(-c3nnn[nH]3)oc12)c1ccc(OCCCCc2ccccc2)cc1`, in the test on U-937, the IC50 turned out to be 1 nM. Moreover, the ED50 with Cavia porcellus [2] worked out at 1.5 mg/kg.

In the case of `O=C(O)c1cccc(C[C@@H]2COc3ccc(OCc4nc5cc(F)ccc5s4)cc3[C@@H]2O)c1`, the 50% effect level in the test with Cavia porcellus [1] (ED50) was put at a dose of 10.2 mg/kg. Moreover, in the test on U-937, the IC50 worked out at 310 nM.
